Calls of active or inactive are those of the source. The calls are words filed in the database; no cut-off is given here.
Experiments:
5'-nucleotidase [1] = molecular target: T1, 5'-nucleotidase (Homo sapiens, UniProt P21589); assay: Inhibition of CD73 in human plasma incubated for 15 mins in presence of 15N5-AMP by LC/MS analysis; format: cell-free
[2] = Clearance in CD rat at 1 mg/kg, iv measured for 24 hrs by LC-MS/MS analysis; format: ADME, organism-based; settings: in vivo
5'-nucleotidase [3] = molecular target: T1, 5'-nucleotidase; assay: Inhibition of soluble C-terminal 6His-tagged recombinant human CD73 (27 to 547 residues) expressed in CHO cells incubated for 1 hr by malachite green based spectrophotometer assay; format: cell-based
[4] = Selectivity ratio of IC50 for CD73 in human plasma to IC50 for C-terminal 6His-tagged recombinant human CD73 (27 to 547 residues) expressed in CHO cells; format: cell-based
5'-nucleotidase [5] = molecular target: T1, 5'-nucleotidase; assay: Inhibition of recombinant human CD73
EG7 = assay: Antitumor activity against mouse EG7 cells implanted in mouse; format: functional, cell-based
5'-nucleotidase [6] = molecular target: T2, 5'-nucleotidase (Mus musculus, UniProt Q61503); assay: Inhibition of C-terminal 6His-tagged recombinant mouse CD73 (29 to 549 residues) expressed in CHO cells incubated for 1 hr by malachite green assay; format: cell-based
T2 sequence (Q61503 whole entry): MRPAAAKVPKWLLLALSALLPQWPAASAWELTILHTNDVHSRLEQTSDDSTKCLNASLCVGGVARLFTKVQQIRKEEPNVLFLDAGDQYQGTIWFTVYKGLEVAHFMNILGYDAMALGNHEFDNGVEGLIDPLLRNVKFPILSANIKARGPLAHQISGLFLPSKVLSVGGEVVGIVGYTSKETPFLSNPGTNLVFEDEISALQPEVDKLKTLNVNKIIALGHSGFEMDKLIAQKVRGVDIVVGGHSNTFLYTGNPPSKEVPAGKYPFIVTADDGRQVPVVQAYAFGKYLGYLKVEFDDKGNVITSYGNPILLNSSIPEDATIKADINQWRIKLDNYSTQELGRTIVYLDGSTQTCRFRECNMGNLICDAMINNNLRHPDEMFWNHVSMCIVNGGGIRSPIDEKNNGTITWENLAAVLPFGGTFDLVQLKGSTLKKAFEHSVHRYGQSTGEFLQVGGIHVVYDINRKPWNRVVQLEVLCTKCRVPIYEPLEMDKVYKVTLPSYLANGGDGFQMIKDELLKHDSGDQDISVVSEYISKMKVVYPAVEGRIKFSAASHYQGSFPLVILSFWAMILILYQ

5'-nucleotidase [7] = molecular target: T1, 5'-nucleotidase; assay: Inhibition of cell surface anchored CD73 (unknown origin) expressed in human SK-MEL-28 cells incubated for 30 mins by malachite green assay; format: cell-based
[8] = Oral bioavailability in CD rat at 50 mg/kg measured for 24 hrs by LC-MS/MS analysis; format: ADME, organism-based; settings: CD, in vivo

T1 sequence (P21589 whole entry): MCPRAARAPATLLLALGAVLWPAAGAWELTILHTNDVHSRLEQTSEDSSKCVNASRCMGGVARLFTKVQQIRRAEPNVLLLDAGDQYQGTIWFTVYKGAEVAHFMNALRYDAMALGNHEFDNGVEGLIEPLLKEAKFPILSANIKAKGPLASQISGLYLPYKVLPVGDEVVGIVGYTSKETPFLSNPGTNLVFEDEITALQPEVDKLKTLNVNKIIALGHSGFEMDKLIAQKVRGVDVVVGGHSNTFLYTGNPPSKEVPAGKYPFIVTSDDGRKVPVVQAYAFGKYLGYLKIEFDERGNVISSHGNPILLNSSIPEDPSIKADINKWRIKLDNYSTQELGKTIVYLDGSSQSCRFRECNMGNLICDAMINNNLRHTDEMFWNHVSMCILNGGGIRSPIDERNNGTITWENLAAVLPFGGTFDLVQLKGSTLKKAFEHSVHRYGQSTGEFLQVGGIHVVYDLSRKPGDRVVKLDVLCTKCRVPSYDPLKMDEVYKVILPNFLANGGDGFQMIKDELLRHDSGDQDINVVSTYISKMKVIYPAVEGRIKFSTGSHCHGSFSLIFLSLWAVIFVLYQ

**Q.** Which results are given for `C#C[C@@]1(O)[C@@H](COC(Cc2ccccc2)(C(=O)O)C(=O)O)O[C@@H](n2cnc3c(NCc4ccccc4)nc(Cl)nc32)[C@@H]1O`?
**A.** IC50 (5'-nucleotidase [1]): > 100 nM; clearance [2]: 6.3 mL/min/kg

**Q.** Which results are given for `C#C[C@@]1(O)[C@@H](COC(Cc2ccccc2)(C(=O)O)C(=O)O)O[C@@H](n2cnc3c(NCC)nc(Cl)nc32)[C@@H]1O`?
**A.** IC50 (5'-nucleotidase [1]): 6.5 nM; clearance [2]: 7.8 mL/min/kg

**Q.** For `CC#C[C@@]1(O)[C@@H](COC(Cc2ccccc2)(C(=O)O)C(=O)O)O[C@@H](n2cnc3c(N)nc(Cl)nc32)[C@@H]1O`, which IC50 (5'-nucleotidase [1]) is on record?
**A.** 1.6 nM

**Q.** And the clearance [2]?
**A.** 9.9 mL/min/kg

**Q.** With `C#C[C@@]1(O)[C@@H](COC(Cc2ccccc2)(C(=O)O)C(=O)O)O[C@@H](n2cnc3c(N(C)C)cc(Cl)nc32)[C@@H]1O` as the molecule, how does the IC50 (5'-nucleotidase [3]) read?
**A.** 2.1 nM

**Q.** What about the IC50 (5'-nucleotidase [1]) of the same molecule?
**A.** 41 nM

**Q.** And the clearance [2]?
**A.** 5.9 mL/min/kg

**Q.** With `C#C[C@@]1(O)[C@@H](COC(Cc2ccccc2)(C(=O)O)C(=O)O)O[C@@H](n2cnc3c(NCCO)nc(Cl)nc32)[C@@H]1O` as the molecule, how does the IC50 (5'-nucleotidase [1]) read?
**A.** 7.2 nM

**Q.** And the clearance [2]?
**A.** 7.5 mL/min/kg

**Q.** Which IC50 (5'-nucleotidase [1]) does the source give for `C#C[C@@]1(O)[C@@H](COC(Cc2ccccc2)(C(=O)O)C(=O)O)O[C@@H](n2cnc3c(N(C)C)nc(Cl)nc32)[C@@H]1O` here?
**A.** 16 nM

**Q.** What about the clearance [2] of the same molecule?
**A.** 18 mL/min/kg

**Q.** What does the source list for `C#C[C@@]1(O)[C@@H](COC(Cc2ccc(-c3ccccc3C(=O)O)cc2)(C(=O)O)C(=O)O)O[C@@H](n2cnc3c(N)nc(Cl)nc32)[C@@H]1O`?
**A.** IC50 (5'-nucleotidase [1]): 2.8 nM; clearance [2]: 2.9 mL/min/kg; Ratio IC50 [4]: 14

**Q.** Which IC50 (5'-nucleotidase [5]) does the source give for `Nc1nc(Cl)nc2c1ncn2[C@@H]1O[C@H](COC(Cc2ccccc2)(C(=O)O)C(=O)O)[C@@H](O)[C@@H]1F` here?
**A.** 159 nM

**Q.** What does the source list for `C#C[C@@]1(O)[C@@H](COC(Cc2ccc(-c3ccc[nH]c3=O)cc2)(C(=O)O)C(=O)O)O[C@@H](n2cnc3c(N)nc(Cl)nc32)[C@@H]1O`?
**A.** IC50 (5'-nucleotidase [1]): 0.38 nM; Ratio IC50 [4]: 3.8

**Q.** With `CN(C(=O)c1ccccc1)c1ccc(CC(OC[C@H]2O[C@@H](n3cnc4c(N)nc(Cl)nc43)[C@@H](F)[C@@H]2O)(C(=O)O)C(=O)O)cc1` as the molecule, how does the IC50 (5'-nucleotidase [5]) read?
**A.** 9 nM

**Q.** For `C#C[C@@]1(O)[C@@H](COC(Cc2ccc(-c3ccccc3)cc2)(C(=O)O)C(=O)O)O[C@@H](n2cnc3c(N)nc(Cl)nc32)[C@@H]1O`, which IC50 (5'-nucleotidase [1]) is on record?
**A.** 15.6 nM

**Q.** What about the clearance [2] of the same molecule?
**A.** 64 mL/min/kg

**Q.** And the Ratio IC50 [4]?
**A.** 52

**Q.** Which results are given for `C#C[C@@]1(O)[C@@H](COC(Cc2ccccc2)(C(=O)O)C(=O)O)O[C@@H](n2cnc3c(NC(C)C)nc(Cl)nc32)[C@@H]1O`?
**A.** IC50 (5'-nucleotidase [1]): 50 nM; clearance [2]: 1.4 mL/min/kg

**Q.** With `C#C[C@@]1(O)[C@@H](COC(Cc2ccccc2)(C(=O)O)C(=O)O)O[C@@H](n2cnc3c(N)nc(Cl)nc32)[C@@H]1O` as the molecule, how does the clearance [2] read?
**A.** 13 mL/min/kg

**Q.** What about the Activity (EG7) of the same molecule?
**A.** Active

**Q.** And the IC50 (5'-nucleotidase [6])?
**A.** 7.3 nM

**Q.** With `Nc1ncnc2c1ncn2[C@@H]1O[C@H](COP(=O)(O)CP(=O)(O)O)[C@@H](O)[C@H]1O` [PHOSPHOMETHYLPHOSPHONIC ACID ADENOSYL ESTER] as the molecule, how does the IC50 (5'-nucleotidase [5]) read?
**A.** 6090 nM

**Q.** Which IC50 (5'-nucleotidase [7]) does the source give for `C[C@@]1(O)[C@@H](COC(Cc2ccccc2)(C(=O)O)C(=O)O)O[C@@H](n2cnc3c(N)nc(Cl)nc32)[C@@H]1O` here?
**A.** 169 nM

**Q.** With `C#C[C@@]1(O)[C@@H](COC(Cc2ccccc2)(C(=O)O)C(=O)O)O[C@@H](n2cnc3c(-c4cccs4)nc(Cl)nc32)[C@@H]1O` as the molecule, how does the IC50 (5'-nucleotidase [1]) read?
**A.** 136 nM

**Q.** For `C#C[C@@]1(O)[C@@H](COC(Cc2ccc(N3CCCCC3=O)cc2)(C(=O)O)C(=O)O)O[C@@H](n2cnc3c(N)nc(Cl)nc32)[C@@H]1O`, which Ratio IC50 [4] is on record?
**A.** 1

**Q.** For `C#C[C@@]1(O)[C@@H](COC(Cc2ccccc2)(C(=O)O)C(=O)O)O[C@@H](n2cnc3c(N[C@H](C)c4ccccc4)nc(Cl)nc32)[C@@H]1O`, which IC50 (5'-nucleotidase [1]) is on record?
**A.** 917 nM

**Q.** And the clearance [2]?
**A.** 1 mL/min/kg

**Q.** Which IC50 (5'-nucleotidase [1]) does the source give for `Nc1nc(Cl)nc2c1ncn2[C@@H]1O[C@H](COC(Cc2ccccc2)(C(=O)O)C(=O)O)[C@](O)(C#CC2CC2)[C@H]1O` here?
**A.** 1.5 nM

**Q.** And the clearance [2]?
**A.** 54 mL/min/kg

**Q.** Which IC50 (5'-nucleotidase [3]) does the source give for `CC[C@@]1(O)[C@@H](COC(Cc2ccccc2)(C(=O)O)C(=O)O)O[C@@H](n2cnc3c(N)nc(Cl)nc32)[C@@H]1O` here?
**A.** 200 nM

**Q.** For `C#C[C@@]1(O)[C@@H](COC(Cc2ccccc2)(C(=O)O)C(=O)O)O[C@@H](n2cnc3c(NC)nc(Cl)nc32)[C@@H]1O`, which IC50 (5'-nucleotidase [1]) is on record?
**A.** 15.5 nM

**Q.** What about the clearance [2] of the same molecule?
**A.** 10 mL/min/kg

**Q.** For `C#C[C@@]1(O)[C@@H](COC(Cc2ccccc2)(C(=O)O)C(=O)O)O[C@@H](n2cnc3c(NCC4CC4)nc(Cl)nc32)[C@@H]1O`, which IC50 (5'-nucleotidase [1]) is on record?
**A.** 11.5 nM

**Q.** And the clearance [2]?
**A.** 3.7 mL/min/kg

**Q.** For `Nc1nc(Cl)nc2c1ncn2[C@@H]1O[C@H](COC(Cc2ccccc2)(C(=O)O)C(=O)O)[C@@H](O)[C@H]1O`, which IC50 (5'-nucleotidase [7]) is on record?
**A.** 434 nM

**Q.** What about the clearance [2] of the same molecule?
**A.** 20.4 mL/min/kg

**Q.** What about the bioavailability [8] of the same molecule?
**A.** 1.8%

**Q.** And the IC50 (5'-nucleotidase [5])?
**A.** 100 nM

**Q.** What does the source list for `C#C[C@@]1(O)[C@@H](COC(Cc2ccccc2)(C(=O)O)C(=O)O)O[C@@H](n2cnc3c(N4CC(O)C4)nc(Cl)nc32)[C@@H]1O`?
**A.** IC50 (5'-nucleotidase [1]): 5.4 nM; clearance [2]: 17 mL/min/kg

**Q.** Which IC50 (5'-nucleotidase [3]) does the source give for `C#C[C@@]1(O)[C@@H](COC(Cc2ccccc2)(C(=O)O)C(=O)O)O[C@@H](n2cnc3c(NC(C)C)cc(Cl)nc32)[C@@H]1O` here?
**A.** 2 nM

**Q.** And the IC50 (5'-nucleotidase [1])?
**A.** 160 nM

**Q.** And the clearance [2]?
**A.** 0.91 mL/min/kg

**Q.** With `C#C[C@@]1(O)[C@@H](COC(Cc2ccccc2)(C(=O)O)C(=O)O)O[C@@H](n2cnc3c(N[C@@H](C)c4ccccc4)nc(Cl)nc32)[C@@H]1O` as the molecule, how does the IC50 (5'-nucleotidase [1]) read?
**A.** 208 nM

**Q.** What about the clearance [2] of the same molecule?
**A.** 9.2 mL/min/kg

From ChEMBL document CHEMBL5316268 (J Med Chem, 2023)
